This is an account of results in US9206219B2, “17-hydroxy-17-pentafluorethyl-estra-4,9(10)-dien-11-aryl derivatives, methods for the production thereof and the use thereof for treating diseases” (Bayer Intellectual Property GmbH, priority 2009, dated 2015).

Experiment [1] addresses T1, human progesterone receptor A (Homo sapiens, UniProt P06401).
T1 construct: expressed in transfected cells; host or cells: SK-N-MC human neuroblastoma cells, stably transfected with pRChPR-A-neo and pMMTV-LUC
T1 sequence (P06401 1-769 isoform P06401-2): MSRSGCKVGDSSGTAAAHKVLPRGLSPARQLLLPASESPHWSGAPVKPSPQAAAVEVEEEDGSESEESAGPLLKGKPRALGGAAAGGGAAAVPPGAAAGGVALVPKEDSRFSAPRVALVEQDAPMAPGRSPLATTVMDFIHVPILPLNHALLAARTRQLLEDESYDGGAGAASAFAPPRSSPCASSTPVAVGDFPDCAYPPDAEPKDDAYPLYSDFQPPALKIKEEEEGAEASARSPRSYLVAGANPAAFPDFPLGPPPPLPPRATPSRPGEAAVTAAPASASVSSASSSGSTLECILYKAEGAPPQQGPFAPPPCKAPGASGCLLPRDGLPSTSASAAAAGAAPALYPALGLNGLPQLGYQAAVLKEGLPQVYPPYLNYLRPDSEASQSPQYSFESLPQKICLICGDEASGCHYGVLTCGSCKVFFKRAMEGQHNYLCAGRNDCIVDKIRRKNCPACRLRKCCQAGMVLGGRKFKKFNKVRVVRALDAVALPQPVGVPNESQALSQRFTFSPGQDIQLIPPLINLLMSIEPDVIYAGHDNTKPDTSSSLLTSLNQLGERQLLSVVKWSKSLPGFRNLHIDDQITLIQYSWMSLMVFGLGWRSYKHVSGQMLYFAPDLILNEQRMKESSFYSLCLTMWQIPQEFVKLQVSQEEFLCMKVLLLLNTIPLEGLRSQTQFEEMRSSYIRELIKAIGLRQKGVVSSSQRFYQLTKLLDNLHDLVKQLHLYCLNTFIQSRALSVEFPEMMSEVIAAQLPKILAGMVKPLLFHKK
In words: Progesterone receptor-antagonistic action in stably transfected SK-N-MC cells, MMTV-LUC reporter (PR-A). The experiment is classed as cell-based. As to conditions: antagonistic potency vs 0.1 nmol/l promegestone, 24 hours. On the procedure: (§1) Progesterone Receptor-Antagonistic Action in Stable Transfectants of Human Neuroblastoma Cells (SK-N-MC Cells) with the Human Progesterone A or Progesterone B Receptor and an MN-LUC Reporter Construct
(§2) SK-N-MC cells (human neuroblastoma cells) which have been stably transfected with plasmids expressing the human progesterone receptor B (pRChPR-B-neo) or the human progesterone receptor A (pRChPR-A-neo) and a reporter construct (pMMTV-LUC) were incubated for 24 hours either in the absence (negative control) or in the presence of ascending amounts of the particular test compound (0.01 nmol/l, 0.1 nmol/l, 1 nmol/l, 10 nmol/l, 100 nmol/l and […]), in order to determine the agonistic efficacy. As a positive control of the reporter gene induction, the cells were treated with the synthetic gestagen promegestone (0.01 nmol/l, 0.1 nmol/l, 1 nmol/l, 10 nmol/l, 100 nmol/l and […]). To determine the antagonistic activity, the cells were treated with 0.1 nmol/l promegestone and additionally with ascending amounts of the particular test compound (0.01 nmol/l, 0.1 nmol/l, 1 nmol/l, 10 nmol/l, 100 nmol/l and […]). The activity of the reporter gene LUC (LUC=luciferase) was determined in the cell lysates and measured as RLU (relative light units). All measurements are reported as % efficacy and as EC50 and IC50 concentrations.

The target of experiment [2] is T2, human progesterone receptor B (Homo sapiens, UniProt P06401).
T2 construct: expressed in transfected cells; host or cells: SK-N-MC human neuroblastoma cells, stably transfected with pRChPR-B-neo and pMMTV-LUC
T2 sequence (P06401 1-933): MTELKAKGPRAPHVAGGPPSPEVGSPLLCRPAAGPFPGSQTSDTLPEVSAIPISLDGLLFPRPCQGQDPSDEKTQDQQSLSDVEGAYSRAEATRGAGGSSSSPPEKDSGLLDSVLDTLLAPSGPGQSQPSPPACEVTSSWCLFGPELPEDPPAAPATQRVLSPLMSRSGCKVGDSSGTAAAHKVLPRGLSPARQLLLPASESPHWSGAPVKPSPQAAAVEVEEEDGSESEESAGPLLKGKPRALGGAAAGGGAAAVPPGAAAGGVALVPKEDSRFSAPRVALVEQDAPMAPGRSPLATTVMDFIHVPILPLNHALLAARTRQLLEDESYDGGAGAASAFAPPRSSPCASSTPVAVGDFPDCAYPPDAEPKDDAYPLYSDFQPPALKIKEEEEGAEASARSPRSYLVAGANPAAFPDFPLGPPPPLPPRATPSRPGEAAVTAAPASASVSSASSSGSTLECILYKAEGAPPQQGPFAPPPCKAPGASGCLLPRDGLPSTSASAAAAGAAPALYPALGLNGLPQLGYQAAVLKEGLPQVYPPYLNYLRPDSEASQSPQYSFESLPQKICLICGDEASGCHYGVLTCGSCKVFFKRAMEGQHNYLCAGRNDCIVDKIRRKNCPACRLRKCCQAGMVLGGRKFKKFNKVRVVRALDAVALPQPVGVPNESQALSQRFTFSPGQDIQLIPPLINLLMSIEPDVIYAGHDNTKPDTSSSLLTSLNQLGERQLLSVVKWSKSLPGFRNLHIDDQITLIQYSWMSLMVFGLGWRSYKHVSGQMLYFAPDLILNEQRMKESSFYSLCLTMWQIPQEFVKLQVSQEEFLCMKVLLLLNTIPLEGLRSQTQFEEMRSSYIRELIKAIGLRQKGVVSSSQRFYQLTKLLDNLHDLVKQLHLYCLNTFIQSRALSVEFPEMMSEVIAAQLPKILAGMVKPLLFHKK
The experiment in a line: Progesterone receptor-antagonistic action in stably transfected SK-N-MC cells, MMTV-LUC reporter (PR-B). The experiment is classed as cell-based. As to conditions: antagonistic potency vs 0.1 nmol/l promegestone, 24 hours. On the procedure:
as §1, §2

For orientation: IC50 means the midpoint of a concentration-inhibition curve.

On to `CC1(c2ccc([C@H]3C[C@@]4(C)[C@@H](CC[C@@]4(O)C(F)(F)C(F)(F)F)[C@@H]4CCC5=CC(=O)CCC5=C43)cc2)COC1` [Example 40, (8S,11R,13S,14S,17S)-17-hydroxy-13-methyl-11-[4-(3-methyloxetan-3-yl)phenyl]-17-pentafluoroethyl-1,2,6,7,8,11,12,13,14,15,16,17-dodecahydrocyclopenta[a]phenanthren-3-one], for which the concentration for half-maximal inhibition (IC50) in experiment [1] worked out at 0.01 nM; in experiment [2], 0.05 nM.
With `CC(C)NC(=O)OCc1ccc([C@H]2C[C@@]3(C)[C@@H](CC[C@@]3(O)C(F)(F)C(F)(F)F)[C@@H]3CCC4=CC(=O)CCC4=C32)cc1` [Example 42, isopropylcarbamic acid 4-((8S,11R,13S,14S,17S)-17-hydroxy-13-methyl-3-oxo-17-pentafluoroethyl-2,3,6,7,8,11,12,13,14,15,16,17-dodecahydro-1H-cyclopenta[a]phenanthren-11-yl)benzyl ester], the IC50 in experiment [1] was 0.1 nM; in experiment [2], 0.2 nM.
Take `C=CCNC(=O)OCc1ccc([C@H]2C[C@@]3(C)[C@@H](CC[C@@]3(O)C(F)(F)C(F)(F)F)[C@@H]3CCC4=CC(=O)CCC4=C32)cc1` [Example 43, allylcarbamic acid 4-((8S,11R,13S,14S,17S)-17-hydroxy-13-methyl-3-oxo-17-pentafluoroethyl-2,3,6,7,8,11,12,13,14,15,16,17-dodecahydro-1H-cyclopenta[a]phenanthren-11-yl)benzyl ester]: the IC50 in experiment [1] and in experiment [2] was 0.1 nM in each case.
Take `CC(C)(C)NC(=O)OCc1ccc([C@H]2C[C@@]3(C)[C@@H](CC[C@@]3(O)C(F)(F)C(F)(F)F)[C@@H]3CCC4=CC(=O)CCC4=C32)cc1` [Example 44, tert-butylcarbamic acid 4-((8S,11R,13S,14S,17S)-17-hydroxy-13-methyl-3-oxo-17-pentafluoroethyl-2,3,6,7,8,11,12,13,14,15,16,17-dodecahydro-1H-cyclopenta[a]phenanthren-11-yl)benzyl ester]: the concentration for half-maximal inhibition (IC50) in experiment [1] and in experiment [2] was 0.1 nM throughout.
Consider `C[C@]12C[C@H](c3ccc(COC(=O)Nc4ccc(N5CCCCC5)cc4)cc3)C3=C4CCC(=O)C=C4CC[C@H]3[C@@H]1CC[C@@]2(O)C(F)(F)C(F)(F)F` [Example 45, (4-piperidin-1-ylphenyl)carbamic acid 4-((8S,11R,13S,14S,17S)-17-hydroxy-13-methyl-3-oxo-17-pentafluoroethyl-2,3,6,7,8,11,12,13,14,15,16,17-dodecahydro-1H-cyclopenta[a]phenanthren-11-yl)benzyl ester], for which the figures for the IC50 in experiment [1] and in experiment [2] were 0.02 nM and 0.09 nM, respectively.
For `C[C@]12C[C@H](c3ccc(COC(=O)Nc4ccccc4)cc3)C3=C4CCC(=O)C=C4CC[C@H]3[C@@H]1CC[C@@]2(O)C(F)(F)C(F)(F)F` [Example 46, phenylcarbamic acid 4-((8S,11R,13S,14S,17S)-17-hydroxy-13-methyl-3-oxo-17-pentafluoroethyl-2,3,6,7,8,11,12,13,14,15,16,17-dodecahydro-1H-cyclopenta[a]phenanthren-11-yl)benzyl ester] the same measures were 0.01 nM and 0.01 nM.
As to `Cc1ccc(NC(=O)OCc2ccc([C@H]3C[C@@]4(C)[C@@H](CC[C@@]4(O)C(F)(F)C(F)(F)F)[C@@H]4CCC5=CC(=O)CCC5=C43)cc2)cc1` [Example 48, (4-methylphenyl)carbamic acid 4-((8S,11R,13S,14S,17S)-17-hydroxy-13-methyl-3-oxo-17-pentafluoroethyl-2,3,6,7,8,11,12,13,14,15,16,17-dodecahydro-1H-cyclopenta[a]phenanthren-11-yl)benzyl ester], the half-maximal inhibitory concentration (IC50) in experiment [1] was 0.07 nM; in experiment [2] it was 0.2 nM.
For the compound `C[C@]12C[C@H](c3ccc(COC(=O)Nc4ccc(F)cc4)cc3)C3=C4CCC(=O)C=C4CC[C@H]3[C@@H]1CC[C@@]2(O)C(F)(F)C(F)(F)F` [Example 49, (4-fluorophenyl)carbamic acid 4-((8S,11R,13S,14S,17S)-17-hydroxy-13-methyl-3-oxo-17-pentafluoroethyl-2,3,6,7,8,11,12,13,14,15,16,17-dodecahydro-1H-cyclopenta[a]phenanthren-11-yl)benzyl ester], the results for the half-inhibitory concentration (IC50) in experiment [1] and in experiment [2] were 0.09 nM and 0.1 nM, respectively.
On to `C[C@]12C[C@H](c3ccc(COC(=O)Nc4ccc(Cl)cc4)cc3)C3=C4CCC(=O)C=C4CC[C@H]3[C@@H]1CC[C@@]2(O)C(F)(F)C(F)(F)F` [Example 50, (4-chlorophenyl)carbamic acid 4-((8S,11R,13S,14S,17S)-17-hydroxy-13-methyl-3-oxo-17-pentafluoroethyl-2,3,6,7,8,11,12,13,14,15,16,17-dodecahydro-1H-cyclopenta[a]phenanthren-11-yl)benzyl ester], for which the values for the half-maximal inhibitory concentration (IC50) in experiment [1] and in experiment [2] were 0.1 nM and 0.4 nM, respectively.
In the case of `CCOC(=O)c1ccc(NC(=O)OCc2ccc([C@H]3C[C@@]4(C)[C@@H](CC[C@@]4(O)C(F)(F)C(F)(F)F)[C@@H]4CCC5=CC(=O)CCC5=C43)cc2)cc1` [Example 52, 4-[4-((8S,11R,13S,14S,17S)-17-hydroxy-13-methyl-3-oxo-17-pentafluoroethyl-2,3,6,7,8,11,12,13,14,15,16,17-dodecahydro-1H-cyclopenta[a]phenanthren-11-yl)benzyloxycarbonylamino]benzoic acid ethyl ester], the 50% inhibitory concentration (IC50) in experiment [1] and in experiment [2] was 0.1 nM throughout.
`C[C@]12C[C@H](c3ccc(CNC(=O)c4cccnc4)cc3)C3=C4CCC(=O)C=C4CC[C@H]3[C@@H]1CC[C@@]2(O)C(F)(F)C(F)(F)F` [Example 54, N-[4-((8S,11R,13S,14S,17S)-17-hydroxy-13-methyl-3-oxo-17-pentafluoroethyl-2,3,6,7,8,11,12,13,14,15,16,17-dodecahydro-1H-cyclopenta[a]phenanthren-11-yl)benzyl]nicotinamide]: the figures for the half-inhibitory concentration (IC50) in experiment [1] and in experiment [2] were 0.3 nM and 0.1 nM, respectively.
With `C[C@]12C[C@H](c3ccc(COC(=O)NCCC(=O)O)cc3)C3=C4CCC(=O)C=C4CC[C@H]3[C@@H]1CC[C@@]2(O)C(F)(F)C(F)(F)F` [Example 55, 3-[4-((8S,11R,13S,14S,17S)-17-hydroxy-13-methyl-3-oxo-17-pentafluoroethyl-2,3,6,7,8,11,12,13,14,15,16,17-dodecahydro-1H-cyclopenta[a]phenanthren-11-yl)benzyloxycarbonylamino]propionic acid], the half-maximal inhibitory concentration (IC50) in experiment [1] was determined as 8 nM; in experiment [2], 10 nM.
